Consider 21 molecules from ChEMBL document CHEMBL1140134, “Structure-guided design of N-phenyl tertiary amines as transrepression-selective liver X receptor modulators with anti-inflammatory activity” (J Med Chem, 2008).

Broadly, the IC50 is the point on the concentration scale where inhibition reaches its midpoint. By EC50 is commonly meant the concentration giving half of the maximal effect. High values mean weaker potency, low ones greater potency.

A value given as a limit tells only on which side of the number the result lay.

Data set [1] deals with T1, Oxysterols receptor LXR-alpha (Homo sapiens, UniProt Q13133).
T1 sequence (Q13133 whole entry): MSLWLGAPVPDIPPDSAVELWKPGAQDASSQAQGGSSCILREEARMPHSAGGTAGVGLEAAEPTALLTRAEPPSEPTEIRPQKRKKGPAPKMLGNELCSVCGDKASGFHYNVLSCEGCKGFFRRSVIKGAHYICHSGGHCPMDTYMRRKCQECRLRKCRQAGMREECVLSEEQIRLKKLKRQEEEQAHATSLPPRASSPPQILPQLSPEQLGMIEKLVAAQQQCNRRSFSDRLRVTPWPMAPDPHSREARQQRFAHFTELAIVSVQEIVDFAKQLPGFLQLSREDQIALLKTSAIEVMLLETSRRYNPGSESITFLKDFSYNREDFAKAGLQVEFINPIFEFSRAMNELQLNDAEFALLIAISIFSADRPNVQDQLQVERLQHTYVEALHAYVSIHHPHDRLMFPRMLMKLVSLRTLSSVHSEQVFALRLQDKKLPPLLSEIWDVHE
In words: Displacement of [N-methyl-3H]GW0438 from human biotinylated LXRalpha ligand binding domain.

Data set [2] has as its system THP-1. The experiment in a line: Antiinflammatory activity against human THP1 cells assessed as inhibition of LPS-stimulated IL6 production after 6 hrs by ELISA. The conditions noted are these: THP-1, 6 h. It counts as functional, cell-based. Background: In an ELISA, binding on a coated surface is turned into a signal by an enzyme label.
For data set [3], the system named is THP-1. The experiment in a line: Antiinflammatory activity against human THP1 cells assessed as inhibition of LPS-stimulated IL6 production by ELISA relative to N-(4-(1,1,1,3,3,3-hexafluoro-2-hydroxypropan-2-yl)phenyl)-N-(2,2,2-trifluoroethyl)benzenesulfonamide. The class given is functional.
Data set [4] concerns Huh-7. The experiment in a line: Lipogenic activity against human HuH7 cells assessed as triglyceride accumulation at 10 uM after 4 days relative to N-(4-(1,1,1,3,3,3-hexafluoro-2-hydroxypropan-2-yl)phenyl)-N-(2,2,2-trifluoroethyl)benzenesulfonamide. The class given is functional.
Data set [5] addresses Oxysterols receptor LXR-beta (Homo sapiens, UniProt P55055).
Data set [6] can be described thus: Metabolic stability in human HuH7 cells at 1 uM after 24 hrs. The class given is ADME, cell-based, Huh-7. The conditions noted are these: read-out: Stability.
Data set [7] deals with T2, Nuclear receptor subfamily 1 group I member 2 (Homo sapiens, UniProt O75469).
T2 sequence (O75469 whole entry): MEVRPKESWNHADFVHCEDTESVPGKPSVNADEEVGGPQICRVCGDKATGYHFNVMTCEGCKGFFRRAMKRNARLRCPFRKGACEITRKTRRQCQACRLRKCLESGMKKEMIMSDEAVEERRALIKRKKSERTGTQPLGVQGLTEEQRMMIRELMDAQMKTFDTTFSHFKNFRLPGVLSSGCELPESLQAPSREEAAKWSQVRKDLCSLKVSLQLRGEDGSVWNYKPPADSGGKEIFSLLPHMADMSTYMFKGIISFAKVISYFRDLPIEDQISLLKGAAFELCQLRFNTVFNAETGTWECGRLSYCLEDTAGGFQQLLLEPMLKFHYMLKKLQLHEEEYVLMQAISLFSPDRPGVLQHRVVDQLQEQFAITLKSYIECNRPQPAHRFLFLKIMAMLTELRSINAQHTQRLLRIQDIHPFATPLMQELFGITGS
In words: Inhibition of human PXR.

Data set [8] addresses T1, Oxysterols receptor LXR-alpha. In words: Activation of LXRalpha by GAL4 reporter gene assay. On the technique in general: In a reporter assay the amount or activity of a reporter protein is the signal.

Chain of Oxysterols receptor LXR-beta (P55055 whole entry): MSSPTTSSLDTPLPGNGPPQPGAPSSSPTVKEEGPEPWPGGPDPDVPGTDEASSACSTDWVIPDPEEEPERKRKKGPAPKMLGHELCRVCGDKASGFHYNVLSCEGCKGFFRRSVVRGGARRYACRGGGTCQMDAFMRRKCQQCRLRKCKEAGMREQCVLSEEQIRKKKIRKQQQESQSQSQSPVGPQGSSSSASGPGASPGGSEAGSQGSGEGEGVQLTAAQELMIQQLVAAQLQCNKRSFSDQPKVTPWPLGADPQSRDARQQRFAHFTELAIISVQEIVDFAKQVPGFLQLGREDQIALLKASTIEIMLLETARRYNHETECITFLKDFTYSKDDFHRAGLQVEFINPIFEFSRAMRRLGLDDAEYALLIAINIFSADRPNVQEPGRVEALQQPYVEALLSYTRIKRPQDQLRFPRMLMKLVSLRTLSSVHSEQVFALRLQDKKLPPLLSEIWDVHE

`CCCCN(Cc1cccc(OCCO)c1)c1ccc(C(O)(C(F)(F)F)C(F)(F)F)cc1`: the IC50 in data set [1] worked out at 115 nM; in data set [2], 5 nM. Moreover, the values for the Activity in data set [3] and in data set [4] were 1 and 1.8, respectively.
In the same order, the values of `CCCCN(Cc1cc(Cl)c(O)c(OC)c1)c1ccc(C(O)(C(F)(F)F)C(F)(F)F)cc1` are 775 nM, 10 nM, 1 and under 0.2.
In the same order, the values of `CCCCN(Cc1cc(Cl)c(OC)c(Cl)c1)c1ccc(C(O)(C(F)(F)F)C(F)(F)F)cc1` are 170 nM, 15 nM, 1 and 0.8.
Take `CCCCN(Cc1cc(Cl)c(OC)c(OC)c1)c1ccc(C(O)(C(F)(F)F)C(F)(F)F)cc1`: the values for the half-inhibitory concentration (IC50) in data set [1] and in data set [2] were 165 nM and 15 nM, respectively. Besides, the Activity stood at 1 in data set [3] and 0.4 in data set [4].
In the same order, the values of `CCCCN(Cc1cccc(O)c1)c1ccc(C(O)(C(F)(F)F)C(F)(F)F)cc1` are 160 nM, 35 nM, 1 and 0.5.
In the same order, the values of `CCCCN(Cc1ccc(O)c(Cl)c1)c1ccc(C(O)(C(F)(F)F)C(F)(F)F)cc1` are 560 nM, 25 nM, 1 and 0.6.
`OC(c1ccc(N(Cc2ccccc2)Cc2ccccc2)cc1)(C(F)(F)F)C(F)(F)F` yielded an IC50 in data set [1] of 315 nM. In addition, the Activity in data set [4] was over 0.5.
In the same order, the values of `CN(Cc1ccccc1)c1ccc(C(O)(C(F)(F)F)C(F)(F)F)cc1` are 310 nM and over 0.5.
In the same order, the values of `CCCCN(Cc1cc(OC(F)(F)F)ccc1O)c1ccc(C(O)(C(F)(F)F)C(F)(F)F)cc1` are 190 nM and 1.
Consider `O=C(O)Cc1cccc(OCCCN(Cc2cccc(C(F)(F)F)c2Cl)CC(c2ccccc2)c2ccccc2)c1`, for which the IC50 in data set [1] was found to be 235 nM; in data set [2], 20 nM; in data set [5], 30 nM. Besides, the Activity in data set [3] and in data set [4] was 1 each time.
Consider `CCCCN(Cc1cc(Cl)cc(Cl)c1O)c1ccc(C(O)(C(F)(F)F)C(F)(F)F)cc1`, for which the 50% inhibitory concentration (IC50) was 890 nM in data set [1] and 1290 nM in data set [2]. For the same molecule, in data set [3], the Activity is recorded as under 0.5.
As for `O=S(=O)(c1ccccc1)N(CC(F)(F)F)c1ccc(C(O)(C(F)(F)F)C(F)(F)F)cc1` [T091317], the IC50 in data set [2] came out at 100 nM. Also, the Activity in data set [3] and in data set [4] was 1 in each case. For the same molecule, the remaining at 24 h, 1 µM in data set [6] was 65%.
With `CCCCN(Cc1cc(Cl)ccc1O)c1ccc(C(O)(C(F)(F)F)C(F)(F)F)cc1`, the IC50 was determined as 220 nM in data set [1] and 55 nM in data set [2]. For the same molecule, the Activity in data set [3] and in data set [4] was 1 throughout.
In the case of `CCCCN(Cc1cc(Cl)cc(Cl)c1)c1ccc(C(O)(C(F)(F)F)C(F)(F)F)cc1`, the IC50 is 195 nM in data set [1] and 10 nM in data set [2]. In addition, the Activity in data set [3] was found to be 1; in data set [4] it was 0.7.
In the same order, the values of `CCCCN(Cc1cccc(F)c1O)c1ccc(C(O)(C(F)(F)F)C(F)(F)F)cc1` are 615 nM, 60 nM, 1 and 1.9.
Take `CCCCN(Cc1ccccn1)c1ccc(C(O)(C(F)(F)F)C(F)(F)F)cc1`: the IC50 in data set [1] is 120 nM; in data set [2], 20 nM. The Activity was 1 in data set [3] and 1.1 in data set [4].
In the same order, the values of `CCCCN(Cc1ccccc1O)c1ccc(C(O)(C(F)(F)F)C(F)(F)F)cc1` are 180 nM, 35 nM, 1 and 0.6.
In the same order, the values of `CCCCN(Cc1ccncc1)c1ccc(C(O)(C(F)(F)F)C(F)(F)F)cc1` are 90 nM, 20 nM, 1 and 1.1.
Turning to `CCCCN(Cc1ccc(O)cc1)c1ccc(C(O)(C(F)(F)F)C(F)(F)F)cc1`, in data set [1], the IC50 was determined as 955 nM.
As for `CCCCN(Cc1cc(Cl)c(O)c(Cl)c1)c1ccc(C(O)(C(F)(F)F)C(F)(F)F)cc1`, the values for the IC50 in data set [1] and in data set [2] were 180 nM and 15 nM, respectively. Moreover, the results for the Activity in data set [3] and in data set [4] were 1 and under 0.1, respectively. Further, the remaining at 24 h, 1 µM in data set [6] worked out at 40%. Moreover, the results for the EC50 in data set [7] and in data set [8] were 250 nM and 3000 nM, respectively.
Consider `CCCCN(Cc1ccccc1)c1ccc(C(O)(C(F)(F)F)C(F)(F)F)cc1`, for which the IC50 in data set [1] is 170 nM; in data set [2], 25 nM. Further, the Activity in data set [3] amounted to 1; in data set [4] it was 0.8.
